The text below walks through data of patent publication US20250228864A1, “THERAPIES FOR THE TREATMENT OF INFLAMMATORY BOWEL DISEASE” (Gilead Sciences, Inc., priority 2023, published 2025).

A short description of series [1]: First-in-human Part B: plasma PK after once-daily dosing of Formula (III) for 14 days. It is filed as in vivo. The source says:
Part B (MAD Cohorts 6-10) consisted of up to 5 randomized, blinded (Sponsor-unblinded), placebo-controlled, MAD cohorts. Within each cohort 12 unique subjects were randomized 3:1 to receive blinded Formula (III) (N=9) or PTM Formula (III) (N=3). All subjects within each cohort received Formula (III) at the same dosing frequency.
Subjects enrolled in Part B received either blinded Formula (III) or PTM Formula (III) twice daily or once daily for 14 days. All subjects within each cohort received study drug at the same dosing frequency.
All study drugs in Part B (except Cohort 10 which will be administered under fasting conditions) were administered in the morning and evening following a standard meal (twice daily dosing), or only in the morning (daily dosing) following a standard meal except for Cohort 10.
Concentrations of Formula (III) and the metabolite, in plasma samples were determined using fully validated high-performance liquid chromatography-tandem mass spectrometry (LC-MS/MS) bioanalytical methods. All samples were analyzed in the timeframe supported by frozen stability storage data. The assays for Formula (III), and the metabolite were performed using methods validated by QPS, LLC (Newark, DE, USA).

Series [2] is described as follows: First-in-human Part A: plasma PK after single ascending doses of Formula (III). It is filed as in vivo. Here is the method:
This was a 3-part study to evaluate pharmacokinetics, safety, tolerability, and pharmacodynamics of the Formula (III) compound in healthy volunteers. • To understand the single-dose PK, safety, tolerability, and PD of Formula (III) and its active metabolite, subjects in Part A received a single dose of Formula (III) in the fasting state in a dose-escalating manner. […]
Formula (III) is a prodrug of Formula (I). Plasma concentrations of Formula (III) metabolite was determined, and PK parameters estimated. Plasma concentrations of Formula (III) and/or its metabolites were determined, and PK explored, as appropriate.
Concentrations of Formula (III) and the metabolite, in plasma samples were determined using fully validated high-performance liquid chromatography-tandem mass spectrometry (LC-MS/MS) bioanalytical methods. All samples were analyzed in the timeframe supported by frozen stability storage data. […]

Each structure is given as a SMILES string.

As to `CCOC(=O)[C@H](Cc1ccc(-n2c(=O)c3ccncc3n(C)c2=O)c2ncccc12)NC(=O)c1c(C)cc(N2CCOC[C@@H]2C(F)(F)F)cc1F` (atropisomer, axis not shown) [Formula (III)], the “metabolite multiple-dose exposure, 200-mg tablet fasting versus 500-mg nonfasting capsule” value in series [1] is recorded as “slightly lower”. In series [2], the “plasma exposures of the prodrug Formula (III) compared with the active metabolite” value is on record as “negligible”.
